{"source": "patent US9828630B2", "about": "“Methods of enhancing genetic diagnosis” (BioLamina AB, priority 2011, dated 2017)", "key": {"human ES cells on LN-521": {"tested_on": "human ES cells on LN-521", "assay": "Inhibition of survival assay on LN-521 (function blocking antibodies, pathway inhibitors)", "assay_type": "cell-based", "conditions": "medium contained bFGF, FIG. 16", "description": "(§1) The survival assay was performed as described for the cell adhesion assay above, except that the cells were left in the cell incubator for 24 hours. For inhibition of survival assay, the cells were kept in a medium with function blocking antibodies at the concentrations recommended by the manufacturer or pathway inhibitors at concentrations indicated in the text for 30 minutes, and then plated on the coated dishes. All the experiments were performed in quadruplicate."}, "Akt and MEK1": {"tested_on": "Akt and MEK1", "assay": "Western blot of inhibitor treated and control cells one hour after plating on LN-521", "assay_type": "cell-based, human", "conditions": "one hour after plating on LN-521, FIG. 18 and 19", "description": "HS 181 cells were trypsinized into single cell suspension as described above. For inhibition experiments, the cells were kept in O3 medium with blocking antibodies or pathway inhibitors for 30 minutes and then […] cells were plated on 35 mm dishes precoated with the appropriate matrix coating. For other experiments, same number of cells was plated directly after trypsinization. In all cases the cells were allowed to spread for 1 hour at 37° C., 5% CO2. After two washings in ice-cold PBS, the plates with cells were snap frozen in liquid nitrogen and stored at -80° C. To prepare samples for western blots and ELISA, the plates were slowly thawed and kept on ice with 100-150 μl of lysis buffer (50 mM Tris-HCl, pH7.5, 150 mM NaCl, 0.5% deoxycholate, 0.5% SDS, 1% Triton X-100, 1% Igepal, CompleteTM (Roche) and Phospho-StopTM (Roche)) on top. Then, the cells were scraped, pipetted and sheared through a 27 G 3⁄4'' needle. After that, the cell pellets were clarified by centrifugation at 16,100 rcf for 15 minutes at 4° C. For western blots, 4-12% gradient gels were used for SDS electrophoresis and the proteins were transferred to PVDF membranes. The membrane was hybridized with the antibody of interest according to the manufacturer's instructions. […] For the densitometry analysis the films were scanned at 2,400 dpi and analyzed by the […]5500 program (1 D-Multi Line densitometry mode). […]"}, "human ES cells [1]": {"tested_on": "human ES cells", "assay": "Cell survival assay, 24 hours (1 day) after plating from single cell suspension", "assay_type": "cell-based", "conditions": "for survival / attachment of dissociated hES cells 24 hours (one day) after plating: single cell suspension, O3 medium, no ROCK inhibitor", "description": "(§2) The assay was performed as described (Extracellular Matrix Protocols, 2000). Briefly, 96-well plates were coated by extracellular matrix proteins as described above and blocked by O3 medium containing bovine serum albumin. The ES cells were plated at a cell density of 600 cell/mm^2 upon extracellular matrix-coated plates and were left to adhere for either 1 hour or 1 day at the cell incubator. Non-adherent cells were washed away, and adherent cells were fixed for 20 min by 5% glutaraldehyde, stained by 0.1% Crystal Violet.\nas §1\nPluripotent hES cells express α1, α5, β1, β2 and γ1 laminin chains. To compare the adhesion and clonal survival of hES cells plated from single cell suspension to different coating substrata, hES cells growing as monolayers on LN-511 or as clusters on a feeder layer were trypsinized into single cell suspension in O3 medium and plated on cell culture dishes coated with Matrigel, LN-111, LN-511, LN-521 or a mixture of LN-511 and LN-521, in the absence or presence of a ROCK inhibitor (Y-27632) and analyzed after 24 hours."}, "human ES cells [2]": {"tested_on": "human ES cells", "assay": "Cell adhesion assay, 1 hour after plating on coated plates", "assay_type": "cell-based", "description": "as §2\nBriefly, 96-well plates were coated by extracellular matrix proteins as described above and blocked by O3 medium containing bovine serum albumin. The ES cells were plated at cell density of 50,000 cells/cm^2 onto extracellular matrix-coated plates and left to adhere for 1 hour in a cell incubator. After that the plates were washed 3 times with the medium to remove the non-adherent cells, and then the adherent cells were fixed for 20 minutes by 5% glutaraldehyde, stained by 0.1% Crystal Violet. (Kebo Lab, Spanga, Sweden, http://www.kebolab.se). After one hour and 3 washes with water, Crystal Violet was extracted with 10% acetic acid and quantified by measuring optical density at 570 nm. All the experiments were performed in quadruplicate."}, "human ES and iPS cells": {"tested_on": "human ES and iPS cells", "conditions": "human ES cells grown on laminin-511; cited from earlier work"}, "mouse ES cells": {"tested_on": "mouse ES cells", "conditions": "without LIF or feeder cells; cited from earlier work"}, "hES cells": {"tested_on": "hES cells", "assay": "Clonal survival of individualized hES cells at 250 cells per cm^2", "assay_type": "cell-based, human", "conditions": "laminin-521/E-Cadherin matrix", "description": "hES cells were plated in mTeSR1 medium on different coatings at a density of 250 cells per cm^2 and monitored after 5 days in culture using an alkaline phosphatase staining kit.\nNext, combinations of laminin-521 and E-Cadherin were tested to determine whether the combinations could sustain clonal survival of the cells. Fixed amounts of laminin-521 were used for the cell culture dish coating in combination with titrated E-Cadherin.\nAdditional tests were performed to test the effects of various modifications to the mTeSR1 medium. A mixture of E-Cadherin to laminin-521 in a ratio of about 1:10 w/w was used to coat the plates. […] Time-lapse photography of the cells confirmed that laminin-521/E-Cadherin coatings facilitated cell survival through proliferation of the single cells, not through the aggregation of different cells."}}, "note": "Entries after “also recorded” stand apart in the source; their conditions may differ.", "data": [{"compound": "COc1cccc(-c2cc(=O)c3ccccc3o2)c1N", "note": "[PD 98059]", "values": [{"measurement": "survival of hES cells 24 hours after plating on LN-521 with pathway inhibitor", "setting": "human ES cells on LN-521", "result": "did not affect the survival that severely"}, {"measurement": "efficacy of inhibitor treatment by western blot", "setting": "Akt and MEK1", "result": "confirmed"}]}, {"compound": "C[C@@H](N)[C@H]1CC[C@H](C(=O)Nc2ccncc2)CC1", "note": "[Y-27632]", "values": [{"measurement": "attachment / survival of hES cells 24 hours after plating in presence of ROCK inhibitor", "setting": "human ES cells [1]; O3 medium with Y-27632, Matrigel, LN-111, LN-511, LN-521 and mixture coatings", "result": "remained attached on all 5 coatings; also recorded: survived on all surfaces"}, {"measurement": "cell shape 24 hours after plating on LN-521", "setting": "human ES cells [1]; absence or presence of ROCK inhibitor", "result": "spindle or crescent like shape"}]}, {"compound": "LN-111: mouse laminin-111 (Invitrogen), indicated as LN-111 if not otherwise stated", "values": [{"measurement": "survival / attachment of dissociated hES cells 24 hours (one day) after plating", "setting": "human ES cells [1]", "result": "did not survive; also recorded: almost no cells had survived"}, {"measurement": "survival / attachment of dissociated hES cells 24 hours (one day) after plating", "setting": "human ES cells [1]; listed as mouse laminin-111", "result": "almost no cells remained attached"}]}, {"compound": "LN-121: human recombinant laminin of α1, β2 and γ1 chains from triple transfected HEK293 cells", "values": [{"measurement": "survival / attachment of dissociated hES cells 24 hours (one day) after plating", "setting": "human ES cells [1]", "result": "failed to survive"}]}, {"compound": "LN-511: human recombinant laminin-511 coating", "values": [{"measurement": "survival / attachment of dissociated hES cells 24 hours (one day) after plating", "setting": "human ES cells [1]", "result": "did so as single cells; also recorded: very few"}, {"measurement": "survival / attachment of dissociated hES cells 24 hours (one day) after plating", "setting": "human ES cells [1]; listed as human r-laminin-511", "result": "at a less extent"}, {"measurement": "survival / attachment of dissociated hES cells 24 hours (one day) after plating", "setting": "human ES cells [1]; listed as laminin-511", "result": "in most cases"}, {"measurement": "adhesion of human ES cells after 1 hour", "setting": "human ES cells [2]; O3 medium without any additives, without Y-27632, FIG. 6", "result": "roughly the same"}, {"measurement": "spreading of the cells after one hour compared with Matrigel or LN-111", "setting": "human ES cells [2]; dissociated hES cells, not shown", "result": "clearly better"}, {"measurement": "time hES cells maintain pluripotency and can generate teratomas in SCID mice", "setting": "human ES and iPS cells", "result": "over 3 months"}, {"measurement": "time of self-renewal of mouse ES cells", "setting": "mouse ES cells", "result": "over 5 months"}]}, {"compound": "albumin", "values": [{"measurement": "effect of 2× increase in albumin concentration in mTeSR1 on clonal survival", "setting": "hES cells", "result": "significantly improved clonal survival"}]}, {"compound": "human recombinant LN-111: human recombinant laminin of α1, β1 and γ1 chains from triple transfected HEK293 cells", "values": [{"measurement": "survival / attachment of dissociated hES cells 24 hours (one day) after plating", "setting": "human ES cells [1]", "result": "failed to survive"}]}]}
